Measurements reported in a melting point compilation (Tetko et al.).

## Cc1[nH]c2c([N+](=O)[O-])cccc2c1C
  melting point: 160 to 165 °C

## CCOP(=O)(OCC)Oc1c2cccc1Cc1cccc(c1O)Cc1cccc(c1OP(=O)(OCC)OCC)Cc1cccc(c1O)C2
  melting point: 219 to 224 °C

## CC(=O)Oc1cccc2c1C(=O)c1c(OC(C)=O)cc(C(=O)O)cc1C2=O
  melting point: 218 °C

## N#Cc1c(F)cccc1OCC(F)(F)F
  melting point: 88 to 90 °C

## CCCCCC#CC(=O)O
  melting point: 4 °C

## CC(=O)C=C(C)C
  melting point: -53 °C

## O=C1NN=C(C(F)(F)F)C1=NNc1ccccc1
  melting point: 186 °C

## N#CCc1c(C#N)c(N)nc(Cl)c1C#N
  melting point: 257 to 259 °C

## Nc1cccc(C(=O)O)c1O
  melting point: 240 °C

## N#CCCn1ccnc1-c1ccccc1
  melting point: 99.5 to 102 °C

## COc1ccc(C=C2N=C(c3ccccc3)OC2=O)cc1
  melting point: 151 to 152 °C

## C=C(NC(C)=O)C(=O)O
  melting point: 184 to 187 °C

## O=C(O)C1CCC(C(F)(F)F)CC1 (stereo unspecified)
  melting point: 63 to 65 °C

## Cc1cc(N=Nc2ccccc2)c(C(C)C)cc1[N+]([O-])=Nc1ccccc1
  melting point: 118 °C

## CC(C(=O)O)c1ccc(N2CC=CC2)c(Cl)c1 (stereo unspecified)
  melting point: 99 °C

## O=C(O)c1ccccc1S
  melting point: 164 to 169 °C

## NCc1csc2ccc(Br)cc12
  melting point: 37 to 38 °C

## CCCCNC(=O)n1cc(F)c(=O)[nH]c1=O
  melting point: 136 °C

## C=Cc1ccccc1OC
  melting point: 29 °C

## COC1=C(OC)C(C(COS(C)(=O)=O)OS(C)(=O)=O)OC1=O (stereo unspecified)
  melting point: 77 to 79 °C

## N#Cc1csc2ccc(Cl)cc12
  melting point: 121 to 122 °C

## O=C=Nc1c(Br)cc(F)cc1Br
  melting point: 44 °C

## CC(C)(C)OC(=O)N[C@@H](Cc1ccc(O)cc1)C(=O)O
  melting point: 135 to 140 °C

## O=C(O)c1cc(-c2ccc(Br)cc2)oc1C(F)(F)F
  melting point: 201 to 203 °C

## CCCCN1CCCCC1C(=O)Nc1c(C)cccc1C (stereo unspecified)
  melting point: 107 °C

## COC(=O)c1cc(C)c(Br)s1
  melting point: 35 to 37 °C

## N#Cc1cc(Br)ccc1F
  melting point: 79 °C

## CCc1cccc(C)c1N(COC(C)C)C(=O)CCl
  melting point: 21.6 °C

## Cc1ccc(C(=O)C(F)(F)C(F)(F)F)cc1
  melting point: 4 °C

## C=CSC=C
  melting point: 20 °C

## Oc1ccc(O)c2ccccc12
  melting point: 188 to 192 °C

## COc1ccc(O)c(F)c1F
  melting point: 105 °C

## O=C(OCc1ccccc1)c1cnc(Cl)nc1C(F)(F)F
  melting point: 45 to 47 °C

## OCc1cc2cccnc2s1
  melting point: 47 to 49 °C

## Cc1n[nH]c2c(=O)n(C(C)C)c(C)nc12
  melting point: 143 to 145 °C

## CCOC(=O)c1csc(NC(=O)CCl)n1
  melting point: 208 to 210 °C

## CN(C(=S)Cl)c1ccc(F)cc1
  melting point: 92 to 94 °C

## CCCCCCCCOC(=O)CCCCCC
  melting point: -22.5 °C

## O=[N+]([O-])c1cc([N+](=O)[O-])c(C(Br)=Cc2ccccc2)cc1/C=C\c1ccccc1
  melting point: 194 to 196 °C

## CCCCCC=CC(=O)O
  melting point: 5 to 6 °C

## O=C(O)C1=CC(=C(c2ccc(O)c(C(=O)O)c2)c2ccc(O)c(C(=O)O)c2)C=CC1=O
  melting point: 300 °C

## O=C1CCCCCN1Cc1ccccc1
  melting point: 56 to 57 °C

## CC(=O)NCC1CN(c2ccc(N3CCOCC3)c(F)c2)C(=O)O1 (stereo unspecified)
  melting point: 182 °C

## OCC(F)(F)C(F)(F)C(F)(F)C(F)(F)C(F)(F)C(F)(F)C(F)(F)C(F)(F)C(F)(F)F
  melting point: 87 to 91 °C

## O=C1NC(=O)C2(CCc3ccccc3C2)N1 (stereo unspecified)
  melting point: 268 °C

## Brc1cc(Br)c(Oc2c(Br)c(Br)c(Br)c(Br)c2Br)cc1Br
  melting point: 200 °C

## CCOC(=O)c1sc(-c2ccc(C)cc2)nc1O
  melting point: 128 to 130 °C

## C1=CCCC=CCC1
  melting point: -56.4 °C

## CCCCCCCCCC(=O)OC(=O)CCCCCCCCC
  melting point: 24.7 °C

## COP(=O)(OC)OC
  melting point: -46 °C

## Fc1ccc(C=Nc2n[nH]c(N=Cc3ccc(F)cc3)c2Cc2ccc(Cl)cc2)cc1
  melting point: 223 to 225 °C

## CC(CN(CC(=O)O)CC(=O)O)N(CC(=O)O)CC(=O)O (stereo unspecified)
  melting point: 241 to 243 °C

## N#CCc1c(Cl)cccc1Cl
  melting point: 76 °C

## CSC(SC)=C(C#N)S(=O)(=O)C(C)C
  melting point: 88 to 91 °C

## Nn1c(S(=O)(=O)O)nc2ccccc21
  melting point: 252 to 253 °C

## CCc1n[nH]c2c1C(c1ccccc1)C(C#N)=C(N)O2 (stereo unspecified)
  melting point: 192 to 196 °C

## Cc1nc(-c2cccc(N)c2)cs1
  melting point: 101 to 103 °C

## N#Cc1ccc(C(F)(F)F)cc1
  melting point: 38 °C

## Oc1cncc(F)c1
  melting point: 163 °C

## CC1CCc2cc3c(cc2N1)CCC(C)N3 (stereo unspecified)
  melting point: 125 to 134 °C

## CCC=C(C)C
  melting point: -135 °C

## COCc1c(C(=O)OC(C)C)ncc2[nH]c3ccc(OCc4ccccc4)cc3c12
  melting point: 150 °C

## OCc1ccc2[nH]cnc2c1
  melting point: 129 to 131 °C

## c1ccc(-c2ccc(-c3cnc(-c4ccc(-c5ccccc5)cc4)o3)cc2)cc1
  melting point: 239 °C

## Brc1ccc2c(c1)OCCOCCOCCOCCO2
  melting point: 66 to 71 °C

## Brc1cccc(N2CCCC2)n1
  melting point: 86 to 88 °C

## Cc1nc(-c2cccc(C(=O)O)c2)no1
  melting point: 223 to 225 °C

## O=c1[nH]c2ccc(Br)cc2s1
  melting point: 228 to 232 °C

## O=C1c2cccc([N+](=O)[O-])c2C(=O)c2cccc([N+](=O)[O-])c21
  melting point: 385 °C

## Cc1ccc(C(C)C)c(O)c1C(=O)O
  melting point: 127 °C

## Cc1cc(Br)cnc1N
  melting point: 92 to 94 °C

## Nc1ccc(CN2CCOCC2)cc1
  melting point: 99 to 100 °C

## Oc1cc(Cl)cnc1O
  melting point: 295 °C

## C1CC2OC2CC1C1CO1 (stereo unspecified)
  melting point: -109 °C

## Nc1ccc(Cl)cn1
  melting point: 137 °C

## NNC(=O)COc1ccc(Cl)cc1Cl
  melting point: 153 to 157 °C

## O=C(NC(=O)c1c(F)cccc1F)Nc1ccc(Cl)cc1
  melting point: 239 °C

## O=C(c1ccccc1)c1noc(-c2ccc([N+](=O)[O-])cc2)c1S(=O)(=O)c1ccccc1
  melting point: 165 °C

## Cc1noc(NS(=O)(=O)c2ccc(N)cc2)c1C
  melting point: 193 °C

## O=C(O)c1nccnc1C(=O)O
  melting point: 188 °C

## O=C(N[C@@H](Cc1ccc(Br)cc1)C(=O)O)OCC1c2ccccc2-c2ccccc21
  melting point: 152 °C

## CC(C)(C)OCC1CO1 (stereo unspecified)
  melting point: -70 °C

## CN(C)C(=O)N(C(=O)c1ccccc1)c1ccc(Cl)c(Cl)c1
  melting point: 119 °C

## Oc1ccc(Cl)c(Cl)c1Cl
  melting point: 83.5 °C

## O=C=Nc1ccc2sccc2c1
  melting point: 58 °C

## C[C@]12CC[C@@H](O)[C@H](O)[C@@H]1CC[C@@H]1[C@@H]2CC[C@]2(C)C(=O)CC[C@@H]12
  melting point: 233 °C

## Cc1cc(N(C)C)nc(Cl)n1
  melting point: 87 °C

## Cc1cc(Br)c(OCC(=O)NN)c2c1CCC2
  melting point: 69 to 70 °C

## NC(=S)c1ccccc1F
  melting point: 80 to 84 °C

## NNC(=O)c1ccc(Cl)cc1Cl
  melting point: 169 °C

## C=C1C(=O)C23C(OC)CC4C5(C)CCCC4(COC5OC(C)=O)C2C(OC(C)=O)CC1C3OC(C)=O (stereo unspecified)
  melting point: 214 °C

## CC(C)(C)SSC(C)(C)C
  melting point: -5 °C

## O=CC(O)C1OC(=O)C(O)C1O (stereo unspecified)
  melting point: 178 °C

## O=C1OC(OC2OC(=O)c3ccccc32)c2ccccc21 (stereo unspecified)
  melting point: 222 °C

## Cc1ccc(OP(=O)(Oc2ccc(C)c(C)c2)Oc2ccc(C)c(C)c2)cc1C
  melting point: 72 °C

## N#CCc1ccc(OC(F)(F)F)cc1
  melting point: 29 °C

## CCc1cccc2ccccc12
  melting point: -13.9 °C

## O=C(O)Cc1ccc(O)c([N+](=O)[O-])c1
  melting point: 147 °C

## COc1cc(CCO)ccc1O
  melting point: 41 °C

## N#Cc1ccc([N+](=O)[O-])cc1C#N
  melting point: 140 to 144 °C

## CN(C)c1nc(-c2cccs2)cc(C(F)(F)F)c1C#N
  melting point: 118 to 119 °C

## Cc1ccc(C)c(C#N)c1
  melting point: 13 to 14 °C

## O=c1nn[nH]c2ccccc12
  melting point: 223 °C

## CNC1CCC(c2ccc(Cl)c(Cl)c2)c2ccccc21 (stereo unspecified)
  melting point: 244 °C

## O=C(O)c1ccccc1OC1CCOCC1
  melting point: 53 to 54 °C

## O=[N+]([O-])c1cccc(CS(=O)(=O)Cl)c1
  melting point: 99 °C

## O=c1n(CCCN2CCN(c3cccc(Cl)c3)CC2)nc2ccccn12
  melting point: 87 °C

## CCOC(=O)C1(S(=O)(=O)c2ccc(C)cc2)CCC1
  melting point: 53.5 °C

## CCOc1ccccc1C(N)=O
  melting point: 133 °C

## O=C1/C(=C/c2ccc([N+](=O)[O-])cc2)SC(=S)N1CN1CCCCC1
  melting point: 160 °C

## COc1cc(C=O)ccc1OC(C)=O
  melting point: 76 °C

## O=[N+]([O-])c1ccc(-c2nnc3n2NCS3)cc1
  melting point: 218 °C

## c1ccc2c(c1)cnc1ccccc12
  melting point: 107 °C

## CC(=O)Nc1ccc(/N=N/c2ccc(N(Nc3ccc(NC(C)=O)cc3)C(C)=O)cc2)cc1
  melting point: 218 °C

## CC1(C)O[C@@H]2[C@H](O1)[C@@H]1C[C@H]2NC1=O
  melting point: 150 to 152 °C

## COc1cc2c(c(O)c1OC)CCN(C)C2C (stereo unspecified)
  melting point: 152 °C

## CCOC(=O)[C@]12C[C@@H](c3ccccc3)c3ccccc3[C@H]1c1ccccc1OC2=O
  melting point: 162 °C

## CCc1ccccc1[N+](=O)[O-]
  melting point: -12.3 °C

## O=C(O)CSC=Cc1ccccc1
  melting point: 81 to 84 °C

## N#CC1CC2CCC1C2 (stereo unspecified)
  melting point: 44 °C

## ON(Cc1ccccc1)Cc1ccccc1
  melting point: 123 °C

## CN(C)c1ccccc1N(C)C
  melting point: 8.9 °C

## NC(CC(=O)O)c1ccccc1 (racemic)
  melting point: 222 °C

## O=Nc1ccc(O)c(N=O)c1O
  melting point: 168 °C

## Cc1ccc(C)c2c1C(=O)N(C)C2=O
  melting point: 170 °C

## Cc1cccc2ccc3ccccc3c12
  melting point: 53.5 °C

## COc1ccc(P2(=S)Nn3c(nnc3C(F)(F)F)S2)cc1 (stereo unspecified)
  melting point: 211 °C

## C#CCCCCC
  melting point: -81 °C

## FC(F)(F)c1cc(Cl)c2cccc(Cl)c2n1
  melting point: 62 °C

## Ic1cccc(Cn2cncn2)c1
  melting point: 53 to 55 °C

## O=CC(C=O)c1ccncn1
  melting point: 227 to 232 °C
